Measurements: patent US4684742A, “Process for the production of 2-(2-halogenoethylamino)-2-oxo-3-(2-halogenoethyl)-1.3.2.-oxazaphosphori nanes” (Polska Akademia Nauk-Centrum Baden Molekularnych i …, priority 1984, dated 1987)

What was measured:
[1] = Toxicity (LD50) in healthy CD2F1 female mice, 14 days observation; details: mouse, in vivo; for selectivity ratio: TI from LD50 (healthy CD2F1 mice) and ED50 (L1210 leukemic CD2F1 mice), read-out: Therapeutic index; for LD50 at 336 h: healthy CD2F1 female mice, 14 days observation period
Experimental: (§1) Antileukemic activity against L1210, toxicity and therapeutic
(§2) anlysis. Toxicity (LD50) were determined in healthy CD2F1 femal
mice during 14 days observation period. TI = LD50

[2] = system: L1210; assay: Antileukemic activity in L1210 leukemic CD2F1 female mice (increase in life span); type: in vivo; details: for ED50: Mus musculus, L1210 leukemic CD2F1 female mice, estimated by regression analysis, read-out: ED50 (dose producing 50% increase in life span of treated mice over control); for advantage over parent ifosfamide: racemic or enantiomeric compounds, versus ifosfamide, conclusion from Table 1
Experimental: as §1
Antileukemic activity was evaluated in L1210 leukemic CD2F1 female
mice ED50 doses producing the 50% increase in life span of treated
mice over control were estimated from experimental data by regression
as §2

O=P1(NCCBr)OCCCN1CCBr (centres unmarked) [X=Br, Y=Br, 2-(2-Bromoethylamino)-2-oxo-3-(2-bromoethyl)-1.3.2-oxazaphosphorinane]
selectivity ratio [1]: 10.7
LD50 at 336 h [1]: 459 mg/kg
ED50 [2]: 43 mg/kg
advantage over parent ifosfamide [2]: more advantageous than parent ifosfamide

O=P1(NCCCl)OCCCN1CCBr (centres unmarked) [X=Cl, Y=Br, 2-(2-Chloroethylamino)-2-oxo-3-(2-bromoethyl)-1.3.2-oxazaphosphorinane]
selectivity ratio [1]: 11.6
LD50 at 336 h [1]: 512 mg/kg
ED50 [2]: 44 mg/kg
advantage over parent ifosfamide [2]: more advantageous than parent ifosfamide

O=P1(NCCCl)OCCCN1CCCl (centres unmarked) [X=Cl, Y=Cl, 2-(2-chloroethylamino)-2-oxo-3-(2-chloroethyl)-1.3.2-oxazaphosphorinane, reference compound]
selectivity ratio [1]: 6.6
LD50 at 336 h [1]: 680 mg/kg
ED50 [2]: 103 mg/kg
